Columns and labels:
[1] = system: rat primary cortical neurones; test: Pre-treatment against glutamate-induced damage (LDH) in cortical neurones; type: cell-based; settings: for Neuronal survival (% of control): 24 h before and 24 h after glutamate 100 μM 10 min; for Toxicity at the plateau of activity: nanomolar concentration, cortical neurones in vitro
Method: Exposure of rat primary cortical neurones to glutamate increases lactate dehydrogenase (LDH) activity measured 24 h after glutamate exposure, indicating significant neuronal damage. Rat cortical neurones were cultured by modification of a method previously described (Singer, et al., Neuroscience Letters, 1996, 212, pp. 13-16). On day 10 of culture, the medium was changed to a serum-free defined medium. On day 12, the cultures were washed and placed for 24 h in fresh medium containing test compound or vehicle (DMSO, 0.25%). On day 13 neurones were exposed to glutamate (100 μM; 10 min) at 37° C. The cultures were then washed with, and placed in, fresh medium supplemented with test compound or vehicle for a further 24 h before LDH was measured. Neuronal damage was assessed by measuring LDH activity in the media at 24 h after glutamate exposure.

[2] = system: Rat dopaminergic neurones; test: Pre-treatment against MPP+-induced loss of dopaminergic neurones; type: cell-based; settings: 30 nM, 24 h before and during MPP+ 2 μM 48 h
Method: Rat dopaminergic neurones were cultured as previously described (Schinelli et al., Journal of Neurochemistry, 1988, 50, pp. 1900-1907). On day 5, the cultures were washed and placed in fresh medium containing test compounds (30 nM), vehicle (DMSO, 0.25%) or a combination of BDNF (1.85 nM) and GDNF (0.17 nM) for 24 h.
Exposure of rat primary dopaminergic neurones to MPP^+ (2 μM, 24 h) causes a significant decrease in the number of dopaminergic neurones compared to the control. On day 6, MPP^+ (2 μM) was added to the cultures in the presence of test compounds, vehicle or a combination of BDNF and GDNF for a further 48 h. MPP^+ induces neuronal death, via inhibition of complex I in the mitochondria and consequent ATP depletion, resulting in the production of free radicals and induction of apoptosis. After the incubation period, the cultures were fixed with paraformaldehyde in PBS (4%). After fixation, the neurones were permeabilised with Triton ×100 (0.05%) for 30 min. The neurones were then incubated with anti-tyrosine hydroxylase (TH) at 37° C. for 2 h. The neurones were washed three times with PBS, and then incubated with goat anti mouse/Cy3 for 2 h at 37° C. The neurones were mounted and examined with the fluorescence microscopy.

Rat sensory neurones = test: Neuronal survival in sensory neurones; type: cell-based, Wistar rat; settings: 2 days
Method: Rat sensory neurones were obtained from Wistar rat embryos on the 15th day of gestation. Cells were cultured at 37° C. in 5% CO2/95% air atmosphere. Following 2 days of culturing with sarsasapogenin, smilagenin, vehicle (DMSO, 0.25%) or NGF, sensory neurones were rinsed twice with PBS and fixed in paraformaldehyde (4%) in PBS for 30 min at 4° C. Cells were permeabilised with Triton X-100 (0.1%) and non-specific sites were saturated using foetal bovine serum. Prior to staining, cells were incubated for 2 h at room temperature with a mixture of primary antibodies: anti-neurofilament 68 and 200 in PBS containing foetal bovine serum 5%. Prior to washing, slides were demounted and the cells were washed twice with PBS for 5 min, placed in a dark room for 1 h and incubated with a secondary antibody: anti-mouse coupled with cyanine 3 (Cy3; 1/1600) and an anti-rabbit coupled with fluoroisothiocyanate (FITC; 1/200) in PBS containing foetal bovine serum (5%). Slides were washed twice with PBS for 5 min and mounted on coverslips using Mowiol, an antioxidative solution (9% w/v) in glycerol (22%) buffered with Tris/HCl ([…]; pH 8.5). Slides were left overnight at room temperature to harden and stored in light protected conditions. Slides were viewed using a DAPI/FITC/Cy3 triple filter microscope with a ×20 objective. A series of photographs per well were taken at random using a digital camera.

[3] = system: Rat primary dopaminergic neurones; test: Reversal of MPP+-induced damage in dopaminergic neurones; type: cell-based; settings: 30 nM for 48 h after MPP+ 2 μM 24 h
Method: Rat primary dopaminergic neurones were prepared as described above. On day 5, MPP^+ (2 μM) was added to the cultures for 24 h in culture medium at 37° C. in 5% CO2/95% air atmosphere. Exposure of rat primary dopaminergic neurones to MPP^+ (2 μM, 24 h) causes a significant decrease in the number of dopaminergic neurones compared to the control. On day 6 the medium was removed and fresh medium containing vehicle (DMSO, 0.25%), sarsasapogenin, smilagenin or a combinations of BDNF and GDNF was added. After 48 h, the extent of dopaminergic damage was determined as detailed above.

[4] = system: rat primary cortical neurones; test: Inhibition of induced neurite outgrowth by K252a or PD98059; type: cell-based; settings: 30 nM, 24 h
Method: (§1) Cortical neurones were cultured as detailed above. Neurones were exposed to vehicle (DMSO, 0.25%) or K252a (100 nM) for 1 h. After 1 h, vehicle, sarsasapogenin, smilagenin (30 nM) or BDNF (1.85 nM) was added to the medium in the maintained presence of K252a. Following 24 h exposure to sarsasapogenin or smilagenin (30 nM), vehicle (DMSO, 0.25%) or BDNF (1.85 nM), the neurones were washed using phosphate-buffered saline (PBS) and fixed in glutaraldehyde (2.5%) in PBS. Photographs of 40-60 neurones expressing neurites were taken with a camera fixed on a microscope (objective ×20, Nikon). The neurite length was measured by an analysis of the photographs.
as §1, with “PD98059 (10 μM)” for “K252a (100 nM)”, “vehicle,” for “vehicle, sarsasapogenin,”, “PD98059.” for “K252a.”, “to” for “to sarsasapogenin or”, “PBS” for “phosphate-buffered saline (PBS)”

SMILES | Neuronal survival (% of control) ([1]; 1 nM) | Neuronal survival (% of control) ([1]; 3 nM) | Neuronal survival (% of control) ([1]; 10 nM) | Neuronal survival (% of control) ([1]; 30 nM) | Neuronal survival (% of control) ([1]; 100 nM) | Toxicity at the plateau of activity [1] | Neuronal survival (% of control) [2] | Neuronal survival (% of control) (Rat sensory neurones; 30 nM) | Neuronal survival (% of control) [3] | Neurite length (% of control) ([4]; no inhibitor) | Neurite length (% of control) ([4]; with K252a (100 nM)) | Neuronal survival (% of control) (Rat sensory neurones; 300 nM) | Neurite length (% of control) ([4]; with PD98059 (10 μM))
C[C@H]1CC[C@@]2(OC1)O[C@H]1C[C@H]3[C@@H]4CC[C@@H]5C[C@@H](O)CC[C@]5(C)[C@H]4CC[C@]3(C)[C@H]1[C@@H]2C [Sarsasapogenin, sarsasapogenin] | 76.88 ± 2.79 % of control | 77.23 ± 2.62 % of control | 73.50 ± 3.05 % of control | 78.91 ± 2.97 % of control | 76.30 ± 4.15 % of control | without causing any toxicity | 88.73 ± 4.39 % of control | 130.83 ± 1.75 % of control | 104.30 ± 5.63 % of control | 126.74 ± 5.76^++++ % of control | 93.12 ± 2.88 % of control |  | 
C[C@@H]1CC[C@@]2(OC1)O[C@H]1C[C@H]3[C@@H]4CC[C@@H]5C[C@@H](O)CC[C@]5(C)[C@H]4CC[C@]3(C)[C@H]1[C@@H]2C [Smilagenin, smilagenin] | 81.53 ± 1.66 % of control | 78.19 ± 1.85 % of control | 82.50 ± 1.00 % of control | 89.86 ± 3.55 % of control | 82.45 ± 2.18 % of control | without causing any toxicity | 97.91 ± 3.63 % of control |  | 113.44 ± 4.62 % of control | 146.78 ± 6.75^++++ % of control | 94.36 ± 3.96 % of control | 124.02 ± 7.64 % of control | 120.27 ± 5.80 % of control

Reference: US20120034193A1, “TREATMENT OF NEUROTROPHIC FACTOR MEDIATED DISORDERS” (priority 2009, published 2012)
